Results taken from ChEMBL document CHEMBL1681651, “A broad spectrum anticancer nucleoside with selective toxicity against human colon cells in vitro” (2011).

Assays:
Format in all cases: functional
[1] = Growth inhibition of human […] cells assessed as cell growth at 1 uM after 48 hrs by SRB assay; settings: read-out: Activity
[2] = system: U-251; assay: Growth inhibition of human U251 cells assessed as cell growth at 1 uM after 48 hrs by SRB assay; settings: U-251, 48 h, read-out: Activity
[3] = system: OVCAR-5; assay: Growth inhibition of human OVCAR5 cells assessed as cell growth at 1 uM after 48 hrs by SRB assay; settings: OVCAR-5, 48 h, read-out: Activity
[4] = system: NCI-H460; assay: Growth inhibition of human NCI-H460 cells assessed as cell growth at 1 mM after 48 hrs by SRB assay; settings: NCI-H460, 48 h, read-out: Activity
[5] = system: HCT-15; assay: Growth inhibition of human HCT15 cells assessed as cell growth at 10 uM after 48 hrs by SRB assay; settings: HCT-15, 48 h, read-out: Activity
[6] = system: A549; assay: Growth inhibition of human A549 cells assessed as cell growth at 10 uM after 48 hrs by SRB assay; settings: A549, 48 h, read-out: Activity
[7] = system: MDA-MB-231; assay: Growth inhibition of human MDA-MB-231 cells assessed as cell growth at 1 mM after 48 hrs by SRB assay; settings: MDA-MB-231, 48 h, read-out: Activity
[8] = system: ACHN; assay: Growth inhibition of human ACHN cells assessed as cell growth at 0.1 uM after 48 hrs by SRB assay; settings: read-out: Activity
[9] = system: COLO 205; assay: Growth inhibition of human COLO205 cells after 48 hrs by […] growth inhibition assay; settings: COLO 205, 48 h
[10] = system: OVCAR-5; assay: Growth inhibition of human OVCAR5 cells assessed as cell growth at 10 uM after 48 hrs by SRB assay; settings: OVCAR-5, 48 h, read-out: Activity
[11] = system: UACC-257; assay: Growth inhibition of human UACC257 cells assessed as cell growth at 1 mM after 48 hrs by SRB assay; settings: UACC-257, 48 h, read-out: Activity
[12] = system: SN12C; assay: Growth inhibition of human SN12C cells assessed as cell growth at 10 uM after 48 hrs by SRB assay; settings: read-out: Activity
[13] = system: SNB-75; assay: Growth inhibition of human SNB75 cells assessed as cell growth at 10 uM after 48 hrs by SRB assay; settings: SNB-75, 48 h, read-out: Activity
[14] = system: SNB-19; assay: Growth inhibition of human SNB19 cells assessed as cell growth at 10 uM after 48 hrs by SRB assay; settings: SNB-19, 48 h, read-out: Activity
[15] = system: SK-MEL-2; assay: Growth inhibition of human SK-MEL-2 cells assessed as cell growth at 10 uM after 48 hrs by SRB assay; settings: SK-MEL-2, 48 h, read-out: Activity
[16] = system: HT-29; assay: Growth inhibition of human HT-29 cells assessed as cell growth at 100 uM after 48 hrs by SRB assay; settings: HT-29, 48 h, read-out: Activity
[17] = system: NCI-H23; assay: Growth inhibition of human NCI-H23 cells assessed as cell growth at 10 uM after 48 hrs by SRB assay; settings: NCI-H23, 48 h, read-out: Activity
[18] = system: LOX IMVI; assay: Growth inhibition of human LOXIMVI cells assessed as cell growth at 100 uM after 48 hrs by SRB assay; settings: read-out: Activity
[19] = system: HCT-116; assay: Growth inhibition of human HCT116 cells assessed as cell growth at 0.1 uM after 48 hrs by SRB assay; settings: HCT-116, 48 h, read-out: Activity
[20] = system: SF-539; assay: Growth inhibition of human SF539 cells after 48 hrs by […] growth inhibition assay; settings: SF-539, 48 h
[21] = system: NCI-H522; assay: Growth inhibition of human NCI-H522 cells assessed as cell growth at 1 mM after 48 hrs by SRB assay; settings: NCI-H522, 48 h, read-out: Activity
[22] = system: OVCAR-8; assay: Growth inhibition of human OVCAR8 cells assessed as cell growth at 1 uM after 48 hrs by SRB assay; settings: OVCAR-8, 48 h, read-out: Activity
[23] = system: NCI-H322M; assay: Growth inhibition of human NCI-H322M cells after 48 hrs by […] growth inhibition assay
[24] = system: MDA-MB-435; assay: Growth inhibition of human MDA-MB-435 cells assessed as cell growth at 10 uM after 48 hrs by SRB assay; settings: MDA-MB-435, 48 h, read-out: Activity
[25] = system: CAKI-1; assay: Growth inhibition of human Caki1 cells assessed as cell growth at 1 uM after 48 hrs by SRB assay; settings: CAKI-1, 48 h, read-out: Activity
[26] = system: IGROV-1; assay: Growth inhibition of human IGROV1 cells assessed as cell growth at 0.1 uM after 48 hrs by SRB assay; settings: IGROV-1, 48 h, read-out: Activity
[27] = system: SF-539; assay: Growth inhibition of human SF539 cells assessed as cell growth at 0.1 uM after 48 hrs by SRB assay; settings: SF-539, 48 h, read-out: Activity
[28] = system: NCI-H322M; assay: Growth inhibition of human NCI-H322M cells assessed as cell growth at 10 uM after 48 hrs by SRB assay; settings: read-out: Activity
[29] = system: SK-MEL-2; assay: Growth inhibition of human SK-MEL-2 cells assessed as cell growth at 0.1 uM after 48 hrs by SRB assay; settings: SK-MEL-2, 48 h, read-out: Activity
[30] = system: UO-31; assay: Growth inhibition of human UO31 cells assessed as cell growth at 0.1 uM after 48 hrs by SRB assay; settings: UO-31, 48 h, read-out: Activity
[31] = system: HOP-92; assay: Growth inhibition of human HOP92 cells after 48 hrs by […] growth inhibition assay; settings: HOP-92, 48 h
[32] = system: SK-MEL-5; assay: Growth inhibition of human SK-MEL-5 cells assessed as cell growth at 0.1 uM after 48 hrs by SRB assay; settings: SK-MEL-5, 48 h, read-out: Activity
[33] = system: ACHN; assay: Growth inhibition of human ACHN cells assessed as cell growth at 100 uM after 48 hrs by SRB assay; settings: read-out: Activity
[34] = system: U-251; assay: Growth inhibition of human U251 cells assessed as cell growth at 1 mM after 48 hrs by SRB assay; settings: U-251, 48 h, read-out: Activity
[35] = system: HL-60(TB); assay: Growth inhibition of human HL-60(TB) cells assessed as cell growth at 10 uM after 48 hrs by SRB assay; settings: HL-60, 48 h, read-out: Activity
[36] = read-out: LC50 (the source's name)
[37] = read-out: pLC50 (the source's name) (converted)

## CNC(=O)NC[C@H]1O[C@@H](n2cnc3c(NC(=O)Nc4ccccc4)ncnc32)[C@H](O[Si](C)(C)C(C)(C)C)[C@@H]1O[Si](C)(C)C(C)(C)C
[1]
  growth at 1 µM: 98%
[2]
  growth at 1 µM: 102%
[3]
  growth at 1 µM: 99%
[4]
  growth at 1000 µM: -75%
[5]
  growth at 10 µM: 100%
[6]
  growth at 10 µM: 90%
[7]
  growth at 1000 µM: -76%
[8]
  growth at 0.1 µM: 107%
[9]; read-out: GI50
  GI50: 1.89 µM
[9]; [36]
  CC50: 5.98 µM
[9]; read-out: TGI
  TGI: 3.36 µM
[9]; read-out: pGI50 (converted)
  GI50: 1.91 µM
[9]; [37]
  CC50: 6.03 µM
[9]; read-out: pTGI (converted)
  TGI: 3.39 µM
[10]
  growth at 10 µM: 103%
[11]
  growth at 1000 µM: -24%
[12]
  growth at 10 µM: 98%
[13]
  growth at 10 µM: 73%
[14]
  growth at 10 µM: 91%
[15]
  growth at 10 µM: 105%
[16]
  growth at 100 µM: -80%
[17]
  growth at 10 µM: 105%
[18]
  growth at 100 µM: -89%
[19]
  growth at 0.1 µM: 107%
[20]; read-out: GI50
  GI50: 3.07 µM
[20]; [36]
  CC50: 94.3 µM
[20]; read-out: TGI
  TGI: 13 µM
[20]; read-out: pGI50 (converted)
  GI50: 3.09 µM
[20]; [37]
  CC50: 93.3 µM
[20]; read-out: pTGI (converted)
  TGI: 12.9 µM
[21]
  growth at 1000 µM: -49%
[22]
  growth at 1 µM: 106%
[23]; read-out: GI50
  GI50: 6.86 µM
[23]; [36]
  CC50: > 100 µM
[23]; read-out: TGI
  TGI: > 100 µM
[23]; read-out: pGI50 (converted)
  GI50: 6.92 µM
[23]; [37]
  CC50: > 100 µM
[23]; read-out: pTGI
  TGI: > 100 µM
[24]
  growth at 10 µM: 97%
[25]
  growth at 1 µM: 99%
[26]
  growth at 0.1 µM: 100%
[27]
  growth at 0.1 µM: 100%
[28]
  growth at 10 µM: 105%
[29]
  growth at 0.1 µM: 108%
[30]
  growth at 0.1 µM: 87%
[31]; read-out: GI50
  GI50: 1.56 µM
[31]; [36]
  CC50: 97.6 µM
[31]; read-out: TGI
  TGI: 5.16 µM
[31]; read-out: pGI50 (converted)
  GI50: 1.55 µM
[31]; [37]
  CC50: 97.7 µM
[31]; read-out: pTGI (converted)
  TGI: 5.13 µM
[32]
  growth at 0.1 µM: 102%
[33]
  growth at 100 µM: 10%
[34]
  growth at 1000 µM: -46%

## CCOC(=O)C[C@H]1[C@@H](O[Si](C)(C)C(C)(C)C)[C@H](n2cnc3c(NC(=O)Nc4ccccc4)ncnc32)O[C@@H]1CNC(=O)NC
[1]
  growth at 1 µM: 75%
[2]
  growth at 1 µM: 95%
[3]
  growth at 1 µM: 103%
[4]
  growth at 1000 µM: -49%
[5]
  growth at 10 µM: 94%
[6]
  growth at 10 µM: 94%
[7]
  growth at 1000 µM: -13%
[8]
  growth at 0.1 µM: 107%
[9]; read-out: GI50
  GI50: 3.84 µM
[9]; [36]
  CC50: > 100 µM
[9]; read-out: TGI
  TGI: > 100 µM
[9]; read-out: pGI50 (converted)
  GI50: 3.8 µM
[9]; [37]
  CC50: > 100 µM
[9]; read-out: pTGI (converted)
  TGI: > 100 µM
[10]
  growth at 10 µM: 95%
[11]
  growth at 1000 µM: 9%
[12]
  growth at 10 µM: 103%
[35]
  growth at 10 µM: 101%
[13]
  growth at 10 µM: 85%
[14]
  growth at 10 µM: 87%
[15]
  growth at 10 µM: 99%
[16]
  growth at 100 µM: 17%
[17]
  growth at 10 µM: 100%
[18]
  growth at 100 µM: 35%
[19]
  growth at 0.1 µM: 93%
[20]; read-out: GI50
  GI50: 5.19 µM
[20]; [36]
  CC50: > 100 µM
[20]; read-out: TGI
  TGI: > 100 µM
[20]; read-out: pGI50 (converted)
  GI50: 5.25 µM
[20]; [37]
  CC50: > 100 µM
[20]; read-out: pTGI (converted)
  TGI: > 100 µM
[21]
  growth at 1000 µM: -2%
[22]
  growth at 1 µM: 100%
[23]; read-out: GI50
  GI50: > 100 µM
[23]; [36]
  CC50: > 100 µM
[23]; read-out: TGI
  TGI: > 100 µM
[23]; read-out: pGI50 (converted)
  GI50: > 100 µM
[23]; [37]
  CC50: > 100 µM
[23]; read-out: pTGI
  TGI: > 100 µM
[24]
  growth at 10 µM: 89%
[25]
  growth at 1 µM: 95%
[26]
  growth at 0.1 µM: 94%
[27]
  growth at 0.1 µM: 97%
[28]
  growth at 10 µM: 95%
[29]
  growth at 0.1 µM: 102%
[30]
  growth at 0.1 µM: 87%
[31]; read-out: GI50
  GI50: < 0.01 µM
[31]; [36]
  CC50: 41.2 µM
[31]; read-out: pGI50 (converted)
  GI50: < 0.01 µM
[31]; [37]
  CC50: 40.7 µM
[32]
  growth at 0.1 µM: 96%
[33]
  growth at 100 µM: 47%
[34]
  growth at 1000 µM: -61%
